Experimental data reported in US11819021B2, “Peptides and methods and uses thereof for modulating anaphase promoting complex (APC) activity” (University of Saskatchewan, priority 2017, dated 2023).
Entries after “also recorded” stand apart in the source; their conditions may differ.

Key:
[1] = biological target: T1, Apc10 (Saccharomyces cerevisiae, UniProt P53068); assay: Yeast 2-hybrid (Y2H) binding of peptide prey to Apc10 bait; settings: galactose-inducible Trx-scaffold peptide prey
T1 construct: expressed in transfected cells; host or cells: yeast Y2H cells
T1 sequence (P53068 1-250): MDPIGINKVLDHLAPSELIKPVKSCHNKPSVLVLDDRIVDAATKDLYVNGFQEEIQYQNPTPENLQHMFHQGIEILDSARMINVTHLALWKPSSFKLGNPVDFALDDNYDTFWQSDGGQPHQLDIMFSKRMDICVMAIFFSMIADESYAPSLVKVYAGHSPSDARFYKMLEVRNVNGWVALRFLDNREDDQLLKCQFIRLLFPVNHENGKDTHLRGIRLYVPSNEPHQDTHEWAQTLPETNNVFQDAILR
Experimental: (§1) The reverse genetic screen utilized a yeast 2-hybrid (Y2H) protocol that selected for peptides that bound to the APC subunits Apc5 or Apc10 (see FIG. 5 for APC structure), to assess whether peptide-binding might modify APC function. Peptides that bound APC subunits were then assayed for those that suppressed APC mutant defects.
A library of random small peptides were cloned into a Thioredoxin (Trx) scaffold (see FIG. 6 for Trx-aptamer structure) and expressed from a galactose-inducible Y2H prey vector in cells expressing the Apc10 bait vector (the modified Apc10 is still part of the complete APC complex). Six peptides that reproducibly interacted with the Apc10 bait construct in Y2H assays were identified (FIG. 1A) and were examined further.
(§2) Random small peptides were cloned into the TrxA scaffold (library provided by R. Geyer, U of S) and expressed from a galactose-inducible Y2H prey vector in cells harboring either APC5 or APC10 Y2H bait vectors (APC5/APC10 bait constructs complement APC mutant defects).
(§3) Over 100 peptides that bound either Apc5 or Apc10 were recovered from millions screened. Six peptides that reproducibly interacted with the Apc10 bait construct in Y2H assays were examined further. Vectors expressing these 6 peptides were transformed into APC mutant cells and assessed for ts growth.

[2] = tested on: APC mutant (apc5 temperature sensitive mutant and/or apc10Δ mutant); assay: Viability/growth of APC mutant yeast cells; type: cell-based
Experimental: (§4) A. apc5^CA cells expressing small peptides were assayed for replicative life span (RLS). B. Cells expressing HTZ1 were grown under stress conditions. HTZ1 expression, even at low levels, suppresses apc5^CA and apc10Δ defects. The cells shown were transformed with either an empty vector or GAL inducible HTZ1. On 2% glucose, the construct is weakly expressed, and this is enough to increase growth of APC mutants at 30° C.
Examples of yeast cells with defective anaphase promoting complex (APC) function include apc5 and apc10 mutants. An example of an apc5 mutant is the apc5 temperature sensitive mutant described herein. An example of an apc10 mutant is the apc10 deletion mutant described herein.
as §1, §3

[3] = biological target: T2, Apc5 (Saccharomyces cerevisiae, UniProt Q08683); assay: Yeast 2-hybrid (Y2H) binding of peptide prey to Apc5 bait; settings: galactose-inducible Trx-scaffold peptide prey
T2 construct: expressed in transfected cells; host or cells: yeast Y2H cells
T2 sequence (Q08683 1-685): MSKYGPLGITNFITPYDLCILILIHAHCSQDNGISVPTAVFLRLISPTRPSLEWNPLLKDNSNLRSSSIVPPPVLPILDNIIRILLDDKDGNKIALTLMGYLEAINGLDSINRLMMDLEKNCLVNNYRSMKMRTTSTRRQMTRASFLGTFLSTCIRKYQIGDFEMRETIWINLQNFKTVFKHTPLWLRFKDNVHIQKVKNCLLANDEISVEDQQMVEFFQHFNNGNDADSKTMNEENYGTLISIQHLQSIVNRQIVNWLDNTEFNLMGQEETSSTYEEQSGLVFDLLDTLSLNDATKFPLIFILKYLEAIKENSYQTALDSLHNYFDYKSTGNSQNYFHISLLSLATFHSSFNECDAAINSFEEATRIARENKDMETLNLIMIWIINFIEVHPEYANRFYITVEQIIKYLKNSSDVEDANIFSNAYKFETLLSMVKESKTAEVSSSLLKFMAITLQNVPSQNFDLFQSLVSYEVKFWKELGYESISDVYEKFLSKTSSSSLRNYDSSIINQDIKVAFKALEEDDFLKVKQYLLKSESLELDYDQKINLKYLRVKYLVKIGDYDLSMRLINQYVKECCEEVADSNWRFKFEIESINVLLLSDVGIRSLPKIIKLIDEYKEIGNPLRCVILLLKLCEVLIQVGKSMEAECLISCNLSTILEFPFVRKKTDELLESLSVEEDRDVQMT
Experimental: as §1, §2, §3

[4] = tested on: yeast proteins; assay: Yeast 2-hybrid assay for proteins interacting with the peptides; type: binding
[5] = tested on: APC; assay: Yeast 2-hybrid binding to the APC
Description: As used herein, the expression “binds to the APC” refers to a peptide that binds to at least one subunit of the APC, for example Apc5 or Apc10. Binding can be measured for example, by any method known in the art, including, but not limited to a yeast 2-hybrid assay.
as §1, §2

[6] = tested on: apc5^CA temperature sensitive mutant; assay: Forward genetic screen: rescue of apc5^CA temperature sensitive growth; type: cell-based, yeast
Description: Using a forward genetic screen to test whether temperature sensitive (ts) APC mutants expressing random small peptides could grow at restrictive temperatures, millions of small peptides were rapidly screened for those that could restore mutant APC phenotypes. Peptides that rescued the apc5^CA ts (temperature sensitive) defect were recovered including peptides Y65 and Y36.
In the forward screens, with galactose-inducible TrxA-based peptide libraries, in cells harboring the apc5^CA ts allele, over 200 peptides (from millions screened) suppressed the ts phenotype. Several recovered plasmids were sequenced.

[7] = tested on: WT cells; assay: Chronological lifespan of WT yeast cells; type: cell-based
Experimental: (§5) A. apc5^CA (temperature sensitive allele) cells were transformed with C43-4, C2-4B or an empty vector. Cells grown overnight in 2% Glu were struck onto 2% Glucose plates and used for the yeast replicative lifespan (RLS) assay. B. Wild type (WT) cells transformed with C43-4, C2-4B or an empty vector were grown to stationary phase in 2% Glu media, then after 2 days spot diluted onto 2% Glu or 2% Gal to induce expression of the aptamers.
(§6) The six peptide expressing vectors were transformed into apc10Δ cells and assessed for temperature sensitive growth. Two of the peptides, C43-4 and C2-4B, suppressed the apc10Δ growth phenotype at 30 and 34° C. (FIG. 1B-D). […] However, C43-4 and C2-4B increased replicative and chronological lifespan in both apc5^CA and WT cells, respectively (FIG. 2A). […] H2O2 induces oxidative stress whereas galactose induces a carbon stress.

[8] = tested on: apc5^CA cells; assay: Yeast replicative lifespan (RLS) assay; type: cell-based
Experimental: as §5, §4

[9] = tested on: wild type (WT) yeast cells; assay: Spot dilution growth and stress resistance of wild type yeast cells expressing peptides; type: cell-based
Experimental: as §5
The cells were exposed to 5 sec of UV from a UV box prior to incubation. The plus signs define growth compared to the empty vector control.
as §6
These cells were spot diluted on Trp-plates and grown at the temperatures shown and/or exposed to ultraviolet (UV) irradiation (FIG. 11). At low level expression on glucose, some of the mutations caused stress dependent phenotypes.
Methods • 1. Cells were cultured overnight in Trp-2% glucose media • 2. The growth of the cells was determined by measuring the optical density (OD) of the cells at 600 nm (OD600) • 3. Cells were diluted to OD600 of 1 with fresh culture media • 4. 100 ul of each culture was pipetted into a well of a 96 well plate • 5. 10 ul of the each starting culture was pipetted into 90 ul of water in 4 additional wells to make a 10-fold serial spot dilution • 6. 5 ul from each serial dilution was spotted onto plates containing standard growth media with either 2% glucose or 2% galactose using a multi-pipettor • 7. The plates were exposed to UV • 8. The plates were then placed at room temperature, 30, 34 or 37° C. for 3-7 days • 9. The plates were scanned and saved as tiff files

[10] = tested on: apc10Δ cells; assay: Spot dilution growth of apc10Δ cells expressing peptides; type: cell-based, yeast
Description: A. Y2H cells expressing the APC subunit bait and the galactose inducible Apc10 peptide prey grown on glucose or galactose. Cells co-expressing the Apc5 or Apc10-bait and Apc10 aptamer-prey vectors were spotted onto the appropriate media, in the presence or absence of galactose (the aptamers are Gal inducible), to confirm 2-hybrid interactions. Growth on trp-his-media ensures both plasmids are maintained. A 2-hybrid interaction will drive expression of the ADE2 gene, allowing growth on ade-media. B. Aptamers that bind Apc10 can suppress APC mutant phenotypes. Spot dilutions of apc10Δ cells expressing an empty vector control or the one of 6 Apc10 aptamers tested. Log phase cells were 10-fold serially diluted and spotted onto plates containing either 2% glucose or 2% galactose. The plates were then incubated at 30° C. (permissive temperature) and 34° C. (restrictive stress). C. Peptides identified as binding to the yeast Apc10 APC subunit using the yeast 2-hybrid screen increase growth of cells on stress conditions. A series of APC binding peptides were transformed into wild type yeast cells, spot diluted, and grown at 30° C. on media supplemented with the normal carbon source (2% glucose). Alternatively, cells were grown on media supplemented with 2% galactose to induce a carbon stress. D. Peptides were expressed in apc5^ts temperature sensitive cells and grown on glucose or galactose media at 30° C.
The cells were exposed to 5 sec of UV from a UV box prior to incubation.
The six peptide expressing vectors were transformed into apc10Δ cells and assessed for temperature sensitive growth. Two of the peptides, C43-4 and C2-4B, suppressed the apc10Δ growth phenotype at 30 and 34° C. (FIG. 1B-D). […]
Over 100 peptides that bound either Apc5 or Apc10 were recovered from millions screened. […] Vectors expressing these 6 peptides were transformed into APC mutant cells and assessed for ts growth.
Methods • 1. […] The growth of the cells was determined by measuring the optical density (OD) of the cells at 600 nm (OD600) • 3. […]

Row | Sequence | Binds Apc10 in a yeast 2 hybrid assay [1] | Viability of an APC mutant [2] | Binds Apc5 in a yeast 2 hybrid assay [3] | Proteins identified as interacting in a yeast 2 hybrid assay [4] | further results
1 | GRMLMTYLMYFMVLWVPRPWGPPL [1-8] | Binds Apc10 | increases the viability | – | – | Binds Apc10 in a yeast 2 hybrid assay ([1]; listed as SEQ ID NO: 8): binds Apc10
2 | CECLETETFHPITRHLIVPV [9-5] | – | increases the viability | Binds Apc5 | Interacts with Die2, Tim44, Yrm1 | Binds Apc5 in a yeast 2 hybrid assay ([3]; listed as SEQ ID NO. 3): binds Apc5
3 | SWLNGSGGVVLWLFSNFCCG [Y36] | – | – | – | – | Binding to the APC in a yeast 2HY assay [5]: not bind the APC in a yeast 2HY; apc5^CA temperature sensitive (ts) growth / viability of an apc5 temperature sensitive mutant [6]: increases the viability; also recorded: rescued; also recorded: Rescues apc5^CA temperature
4 | GALKEVCICIVESVGGEVFSGP [compound 4] | – | increases the viability | Binds Apc5 | Identified as interacting with Hxt2,; also recorded: Mad2, Ubc7, Rpp2, Kap122, Sfa1,; also recorded: Oac1 and Vps13 in a yeast 2- | Binds Apc5 in a yeast 2 hybrid assay ([3]; listed as SEQ ID NO. 6): binds Apc5
5 | RMPQWWQWMWV [C2-4B, Peptide aptamer with homology to yeast protein Sum1] | – | increases the viability | Binds Apc5 | – | Chronological lifespan [7]: increased; Replicative lifespan [8]: increased; Log phase growth of wild type (WT) cells ([9]; 30° C.): Neither C43-4 nor C2-4B influenced; Stress resistance when overexpressed in WT yeast cells ([9]; overexpressed, H2O2 oxidative stress, galactose carbon stress): increased stress resistance; Binds Apc5 in a yeast 2 hybrid assay ([3]; listed as 02-4B): binds Apc5; apc10Δ growth phenotype ([10]; 30 and 34° C.): suppressed
6 | NGSSHNDARVRRLTLISRLC (Artificial Sequene) [C43-4-3, Version of C43-4 where the leucine residue at position 8 is replaced with alanine] | binds Apc10 | – | – | – | Resistance to UV stress compared to C43-4 cells ([9]; FIG. 11, UV treated, for example at room temperature): increased resistance to UV stress; Growth compared to C43-4 cells ([9]; FIG. 11, for example at room temperature): increased growth; Stress resistance at low level expression ([9]; WT cells on glucose, temperature and/or UV stress, versus empty vector): increased stress resistance further; Toxicity in apc10Δ cells ([10]; glucose or galactose media, 5 sec UV (FIG. 13)): remained toxic
7 | PSYNTIKYHETHGGRHPRRQPKRPI [3-1] | Binds Apc10 | increases the viability | – | Identified as interacting with Sld5,; also recorded: Hms2, Gnt1 and Vnx1 in a yeast | Binds Apc10 in a yeast 2 hybrid assay ([1]; listed as SEQ ID NO. 5): binds Apc10
8 | SKWTWRMCMSWTVDRFAPVPWP [24-1] | – | increases the viability | Binds Apc5 | – | Binds Apc5 in a yeast 2 hybrid assay ([3]; listed as SEQ ID NO: 7): binds Apc5
9 | RRCLSIRTENLAWEGKFLRV [50-1] | Binds Apc10 | increases the viability | – | Identified as interacting with Pxa1,; also recorded: Rrp12, and Hfm1 in a yeast 2- | Binds Apc10 in a yeast 2 hybrid assay ([1]; listed as SEQ ID NO: 9): binds Apc10
